Source: patent US10052331B2, “3-(3H-imidazo[4,5-C]pyridin-2-yl)-1H-pyrazolo[3,4-C]pyridine and therapeutic uses thereof” (Samumed, LLC, priority 2014, dated 2018)

Tests used:
[1] = system: primary human fibroblasts derived from IPF patients (LL29 cells); assay: Inhibition of fibrotic process: αSMA staining in TGF-β1-treated primary human fibroblasts from IPF patients (LL29 cells); type: cell-based; settings: Fibroblast, 96 h, LL29 cells treated with TGF-β1 (20 ng/mL), 4 days, 11-point dose-response from 10 μM to 1.87 nM, read-out: Inhibition of fibrosis EC50
Description: The above synthesized compounds were screened using primary human fibroblasts (derived from IPF patients) treated with TGF-β1 to determine their ability to inhibit the fibrotic process.
Primary human fibroblasts derived from IPF patients (LL29 cells) [^1Xiaoqiu Liu, et. al., “Fibrotic Lung Fibroblasts Show Blunted Inhibition by cAMP Due to Deficient cAMP Response Element-Binding Protein Phosphorylation”, Journal of Pharmacology and Experimental Therapeutics (2005), 315(2), 678-687; ^2Watts, K. L., et. al., “RhoA signaling modulates cyclin D1 expression in human lung fibroblasts; implications for idiopathic pulmonary fibrosis”, Respiratory Research (2006), 7(1), 88] were obtained from American Type Culture Collection (ATCC) and expanded in F12 medium supplemented with 15% Fetal Bovine Serum and Penicillin/Streptomycin.
Each compound was dissolved in DMSO as a 10 mM stock and used to prepare compound source plates. Serial dilution (1:2, 11-point dose-response curves from 10 μM to 1.87 nM) and compound transfer was performed using the ECHO 550 (Labcyte, Sunnyvale, Calif.) into 384-well clear bottom assay plates (Greiner Bio-One) with appropriate DMSO backfill for a final DMSO concentration of 0.1%. LL29 cells were plated at 1,500 cells/well in 80 μl/well F12 medium supplemented with 1% Fetal Bovine Serum. One hour after addition of the cells, TGF-β1 (Peprotech; 20 ng/mL) was added to the plates to induce fibrosis (ref. 1 and 2 above). Wells treated with TGF-β1 and containing DMSO were used as controls. Cells were incubated at 37° C. and 5% CO2 for 4 days. Following incubation for 4 days, SYTOX green nucleic acid stain (Life Technologies [Thermo Fisher Scientific]) was added to the wells at a final concentration of 1 uM and incubated at room temperature for 30 min. Cells were then fixed using 4% formaldehyde (Electron Microscopy Sciences), washed 3 times with PBS followed by blocking and permeabilization using 3% Bovine Serum Albumin (BSA; Sigma) and 0.3% Triton X-100 (Sigma) in PBS. Cells were then stained with antibody specific to α-smooth muscle actin (αSMA; Abcam) (ref. 1 and 2 above) in 3% Bovine Serum Albumin (BSA; Sigma) and 0.3% Triton X-100 (Sigma) in PBS, and incubated overnight at 4° C. Cells were then washed 3 times with PBS, followed by incubation with Alexa Flor-647 conjugated secondary antibody (Life Technologies [Thermo Fisher Scientific]) and DAPI at room temperature for 1 hour. Cells were then washed 3 times with PBS and plates were sealed for imaging. αSMA staining was imaged by excitation at 630 nm and emission at 665 nm and quantified using the Compartmental Analysis program on the CellInsight CX5 (Thermo Scientific). Dead or apoptotic cells were excluded from analysis based on positive SYTOX green staining. % of total cells positive for αSMA were counted in each well and normalized to the average of 11 wells treated with TGF-β1 on the same plate using Dotmatics' Studies Software. The normalized averages (fold change over untreated) of 3 replicate wells for each compound concentration were used to create dose-responses curves and EC50 values were calculated using non-linear regression curve fit in the Dotmatics' Studies Software. The EC50 values are reported.

[2] = system: Wnt activity (Wnt-responsive Sp5 promoter-luciferase reporter in SW480 cells); assay: Wnt activity screening assay: Sp5-Luc reporter gene in SW480 colon carcinoma cells; type: cell-based; settings: Homo sapiens
Description: The screening assay for Wnt activity is described as follows. Reporter cell lines can be generated by stably transducing cancer cell lines (e.g., colon cancer) or primary cells (e.g., IEC-6 intestinal cells) with a lentiviral construct that includes a Wnt-responsive promoter driving expression of the firefly luciferase gene.
SW480 colon carcinoma cells were transduced with a lentiviral vector expressing luciferase with a human Sp5 promoter consisting of a sequence of eight TCF/LEF binding sites. SW480 cells stably expressing the Sp5-Luc reporter gene and a hygromycin resistance gene were selected by treatment with 150 μg/ml of hygromycin for 7 days. These stably transduced SW480 cells were expanded in cell culture and used for all further screening activities. For Sp5-Luc reporter gene assays, the cells were plated at 10,000 cells/well in 96-well plates with growth medium containing 10% fetal calf serum and incubated overnight at 37° C. and 5% CO2. Each compound was dissolved in DMSO as a 10 mM stock in standard j-vials and used to prepare compound source plates in dose-response format with 3-fold serial dilutions and a 10 mM top concentration. Compound transfer from serially diluted source plates to assay plates containing the cells was accomplished using a pintool (Multimek 96, Beckman equipped with V&P Scientific FP1S50H pins) based liquid handling protocol. This protocol used a slotted pin to transfer 50 nl of compound from a source plate well to an assay plate well containing 50 μl of cells in growth medium. […] Control wells received 50 nl of DMSO treatment for normalization and calculating IC50 values. The treated cells were incubated at 37° C. and 5% CO2 for an additional forty-two hours. Following incubation, the growth medium was removed and 50 μl of BrightGlo luminescence reagent (Promega) was added to each well of the 96-well assay plates. The plates were placed on an orbital shaker for 5 min and then luminescence was quantified on the Victor3 (Perkin Elmer) plate reader. Readings were normalized to DMSO only treated cells, and normalized activities were utilized for IC50 calculations using the dose-response log (inhibitor) vs. response-variable slope (four parameters) nonlinear regression feature available in GraphPad Prism 5.0 or 6.0.

Compound | EC50 [1] [nM] | IC50 [2] [nM]
CCNCc1cncc(-c2cc3c(-c4nc5c(-c6ccccc6F)cncc5[nH]4)n[nH]c3cn2)c1 [Compound 58, N-((5-(3-(7-(2-Fluorophenyl)-3H-imidazo[4,5-c]pyridin-2-yl)-1H-pyrazolo[3,4-c]pyridin-5-yl)pyridin-3-yl)methyl)ethanamine] | 41 | 40.2
CC(C)(C)C(=O)Nc1cncc(-c2cc3c(-c4nc5c(-c6ccccc6F)cncc5[nH]4)n[nH]c3cn2)c1 [Compound 60, N-(5-(3-(7-(2-Fluorophenyl)-3H-imidazo[4,5-c]pyridin-2-yl)-1H-pyrazolo[3,4-c]pyridin-5-yl)pyridin-3-yl)pivalamide] | ≥ 9990 | 47
CCCC(=O)Nc1cncc(-c2cc3c(-c4nc5c(-c6ccccc6F)cncc5[nH]4)n[nH]c3cn2)c1 [Compound 69, N-(5-(3-(7-(2-Fluorophenyl)-3H-imidazo[4,5-c]pyridin-2-yl)-1H-pyrazolo[3,4-c]pyridin-5-yl)pyridin-3-yl)butyramide] | 44 | 70.3
O=C(Nc1cncc(-c2cc3c(-c4nc5c(-c6ccccc6F)cncc5[nH]4)n[nH]c3cn2)c1)C1CCC1 [Compound 72, N-(5-(3-(7-(2-Fluorophenyl)-3H-imidazo[4,5-c]pyridin-2-yl)-1H-pyrazolo[3,4-c]pyridin-5-yl)pyridin-3-yl)cyclobutanecarboxamide] | ≤ 9 | 144
O=C(Nc1cncc(-c2cc3c(-c4nc5c(-c6ccccc6F)cncc5[nH]4)n[nH]c3cn2)c1)C1CCCC1 [Compound 73, N-(5-(3-(7-(2-Fluorophenyl)-3H-imidazo[4,5-c]pyridin-2-yl)-1H-pyrazolo[3,4-c]pyridin-5-yl)pyridin-3-yl)cyclopentanecarboxamide] | 4330 | 156
CCC(=O)Nc1cncc(-c2cc3c(-c4nc5c(-c6cccnc6)cncc5[nH]4)n[nH]c3cn2)c1 [Compound 79, N-(5-(3-(7-(Pyridin-3-yl)-3H-imidazo[4,5-c]pyridin-2-yl)-1H-pyrazolo[3,4-c]pyridin-5-yl)pyridin-3-yl)propionamide] | 18 | > 10000
c1cncc(-c2cc3c(-c4nc5c(-c6cccnc6)cncc5[nH]4)n[nH]c3cn2)c1 [Compound 82, 5-(Pyridin-3-yl)-3-(7-(pyridin-3-yl)-3H-imidazo[4,5-c]pyridin-2-yl)-1H-pyrazolo[3,4-c]pyridine] | ≥ 9990 | > 10000
c1cncc(-c2cncc3[nH]c(-c4n[nH]c5cnc(-c6cncc(CN7CCCCC7)c6)cc45)nc23)c1 [Compound 93, 5-(5-(Piperidin-1-ylmethyl)pyridin-3-yl)-3-(7-(pyridin-3-yl)-3H-imidazo[4,5-c]pyridin-2-yl)-1H-pyrazolo[3,4-c]pyridine] | ≥ 9990 | 2850
c1ccc(CNCc2cncc(-c3cc4c(-c5nc6c(-c7cccnc7)cncc6[nH]5)n[nH]c4cn3)c2)cc1 [Compound 101, N-Benzyl-1-(5-(3-(7-(pyridin-3-yl)-3H-imidazo[4,5-c]pyridin-2-yl)-1H-pyrazolo[3,4-c]pyridin-5-yl)pyridin-3-yl)methanamine] | ≥ 9990 | 294
Cc1ccncc1-c1cc2c(-c3nc4c(-c5ccncc5)cncc4[nH]3)n[nH]c2cn1 [Compound 109, 5-(4-Methylpyridin-3-yl)-3-(7-(pyridin-4-yl)-3H-imidazo[4,5-c]pyridin-2-yl)-1H-pyrazolo[3,4-c]pyridine] | ≥ 9990 | > 10000
CCCC(=O)Nc1cncc(-c2cc3c(-c4nc5c(-c6ccncc6)cncc5[nH]4)n[nH]c3cn2)c1 [Compound 121, N-(5-(3-(7-(Pyridin-4-yl)-3H-imidazo[4,5-c]pyridin-2-yl)-1H-pyrazolo[3,4-c]pyridin-5-yl)pyridin-3-yl)butyramide] | ≥ 9990 | > 10000
CCNCc1cncc(-c2cc3c(-c4nc5c(-c6ccccn6)cncc5[nH]4)n[nH]c3cn2)c1 [Compound 136, N-((5-(3-(7-(Pyridin-2-yl)-3H-imidazo[4,5-c]pyridin-2-yl)-1H-pyrazolo[3,4-c]pyridin-5-yl)pyridin-3-yl)methyl)ethanamine] | 598 | 562
O=C(Nc1cncc(-c2cc3c(-c4nc5c(-c6ccccn6)cncc5[nH]4)n[nH]c3cn2)c1)c1ccccc1 [Compound 141, N-(5-(3-(7-(Pyridin-2-yl)-3H-imidazo[4,5-c]pyridin-2-yl)-1H-pyrazolo[3,4-c]pyridin-5-yl)pyridin-3-yl)benzamide] | ≥ 9990 | > 10000
CCCCC(=O)Nc1cncc(-c2cc3c(-c4nc5c(-c6ccccn6)cncc5[nH]4)n[nH]c3cn2)c1 [Compound 148, N-(5-(3-(7-(Pyridin-2-yl)-3H-imidazo[4,5-c]pyridin-2-yl)-1H-pyrazolo[3,4-c]pyridin-5-yl)pyridin-3-yl)pentanamide] | ≥ 9990 | > 10000
c1ccc(-c2cncc3[nH]c(-c4n[nH]c5cnc(-c6cncc(CNCC7CCCC7)c6)cc45)nc23)nc1 [Compound 154, 1-Cyclopentyl-N-((5-(3-(7-(pyridin-2-yl)-3H-imidazo[4,5-c]pyridin-2-yl)-1H-pyrazolo[3,4-c]pyridin-5-yl)pyridin-3-yl)methyl)methanamine] | 649 | 945
CCC(=O)Nc1cncc(-c2cc3c(-c4nc5c(N6CCCCC6)cncc5[nH]4)n[nH]c3cn2)c1 [Compound 157, N-(5-(3-(7-(Piperidin-1-yl)-3H-imidazo[4,5-c]pyridin-2-yl)-1H-pyrazolo[3,4-c]pyridin-5-yl)pyridin-3-yl)propionamide] | 1560 | 866
CN(C)c1cncc(-c2cc3c(-c4nc5c(N6CCCCC6)cncc5[nH]4)n[nH]c3cn2)c1 [Compound 163, N,N-Dimethyl-5-(3-(7-(piperidin-1-yl)-3H-imidazo[4,5-c]pyridin-2-yl)-1H-pyrazolo[3,4-c]pyridin-5-yl)pyridin-3-amine] | 38 | 310
CN(C)Cc1cncc(-c2cc3c(-c4nc5c(N6CCCCC6)cncc5[nH]4)n[nH]c3cn2)c1 [Compound 169, N,N-Dimethyl-1-(5-(3-(7-(piperidin-1-yl)-3H-imidazo[4,5-c]pyridin-2-yl)-1H-pyrazolo[3,4-c]pyridin-5-yl)pyridin-3-yl)methanamine] | 74 | 122
O=C(Nc1cncc(-c2cc3c(-c4nc5c(N6CCCCC6)cncc5[nH]4)n[nH]c3cn2)c1)C1CC1 [Compound 175, N-(5-(3-(7-(Piperidin-1-yl)-3H-imidazo[4,5-c]pyridin-2-yl)-1H-pyrazolo[3,4-c]pyridin-5-yl)pyridin-3-yl)cyclopropanecarboxamide] | ≤ 9 | 820
